What all share (experiment): In vitro antibacterial activity, agar dilution MIC
What all share (format): cell-based

The test system of experiment [1] is Mycobacterium smegmatis ATCC 114. Particulars: code UU: Mycobacterium smegmatis ATCC 114; BHI agar, 35-37° C., 20 to 24 hours; unit assumed. Here is the method: (§1) Representative compounds of the present invention were assayed in vitro for antibacterial activity as follows: Twelve petri dishes containing successive aqueous dilutions of the test compound mixed with 10 mL of sterilized Brain Heart Infusion (BHI) agar (Difco 0418-01-5) were prepared. Each plate was inoculated with 1:100 (or 1:10 for slow-growing strains, such as Micrococcus and Streptococcus) dilutions of up to 32 different microorganisms, using a Steers replicator block. The inoculated plates were incubated at 35-37° C. for 20 to 24 hours. In addition, a control plate, using BHI agar containing no test compound, was prepared and incubated at the beginning and end of each test.
(§2) An additional plate containing a compound having known susceptibility patterns for the organisms being tested and belonging to the same antibiotic class as the test compound was also prepared and incubated as a further control, as well as to provide test-to-test comparability. Erythromycin A was used for this purpose.
(§3) After incubation, each plate was visually inspected. The minimum inhibitory concentration (MIC) was defined as the lowest concentration of drug yielding no growth, a slight haze, or sparsely isolated colonies on the inoculum spot as compared to the growth control.

For experiment [2], the system named is Staphylococcus aureus A-5278. To be noted: code CC: Staphylococcus aureus A-5278; BHI agar, 35-37° C., 20 to 24 hours; unit assumed. The protocol:
as §1, §2, §3

The subject of experiment [3] is Streptococcus pyogenes EES61. Particulars: code LL: Streptococcus pyogenes EES61; BHI agar, 35-37° C., 20 to 24 hours; unit assumed. The protocol: as §1, §2, §3
Experiment [4] concerns Streptococcus agalactiae CMX 508. To be noted: code KK: Streptococcus agalactiae CMX 508; BHI agar, 35-37° C., 20 to 24 hours; unit assumed. The protocol: as §1, §2, §3
The subject of experiment [5] is Streptococcus pyogenes PIU 2548. Particulars: code NN: Streptococcus pyogenes PIU 2548; BHI agar, 35-37° C., 20 to 24 hours; unit assumed. The protocol:
as §1, §2, §3

Experiment [6] concerns Haemophilislnfluenzae DILL AMP R. To be noted: code WW: Haemophilislnfluenzae DILL AMP R; BHI agar, 35-37° C., 20 to 24 hours; unit assumed. Here is the method: as §1, §2, §3
In experiment [7] the test system is Staphylococcus aureus A-5177. To be noted: code BB: Staphylococcus aureus A-5177; BHI agar, 35-37° C., 20 to 24 hours; unit assumed. Here is the method:
as §1, §2, §3

Experiment [8] concerns Micrococcusluteus ATCC 4698. Particulars: code PP: Micrococcusluteus ATCC 4698; BHI agar, 35-37° C., 20 to 24 hours; unit assumed. The protocol:
as §1, §2, §3

The test system of experiment [9] is Escherichiacoli SS. Particulars: code RR: Escherichiacoli SS; BHI agar, 35-37° C., 20 to 24 hours; unit assumed. Here is the method:
as §1, §2, §3

In experiment [10] the test system is Streptococcus pyogenes 930. To be noted: code MM: Streptococcus pyogenes 930; BHI agar, 35-37° C., 20 to 24 hours; unit assumed. The protocol:
as §1, §2, §3

In experiment [11] the test system is Streptococcus Pneumonia GYR 1171. To be noted: code YY: Streptococcus Pneumonia GYR 1171; BHI agar, 35-37° C., 20 to 24 hours; unit assumed. Here is the method: as §1, §2, §3
In experiment [12] the test system is Escherichiacoli JUHL. To be noted: code QQ: Escherichiacoli JUHL; BHI agar, 35-37° C., 20 to 24 hours; unit assumed. Here is the method:
as §1, §2, §3

Experiment [13] concerns Candida albicans CCH 442. To be noted: code TT: Candida albicans CCH 442; BHI agar, 35-37° C., 20 to 24 hours; unit assumed. Here is the method: as §1, §2, §3
In experiment [14] the test system is Streptococcus bovis A-5169. To be noted: code JJ: Streptococcus bovis A-5169; BHI agar, 35-37° C., 20 to 24 hours; unit assumed. Here is the method: as §1, §2, §3
For experiment [15], the system named is Staphylococcus aureus 1775. To be noted: code GG: Staphylococcus aureus 1775; BHI agar, 35-37° C., 20 to 24 hours; unit assumed. Here is the method: as §1, §2, §3
Experiment [16] concerns Streptococcus Pneumonia ATCC 6303. To be noted: code XX: Streptococcus Pneumonia ATCC 6303; BHI agar, 35-37° C., 20 to 24 hours; unit assumed. The protocol: as §1, §2, §3
Experiment [17] deals with Staphylococcus epidermidis 3519. To be noted: code HH: Staphylococcus epidermidis 3519; BHI agar, 35-37° C., 20 to 24 hours; unit assumed. The protocol: as §1, §2, §3
The subject of experiment [18] is Streptococcus Pneumonia 5649. To be noted: code ZA: Streptococcus Pneumonia 5649; BHI agar, 35-37° C., 20 to 24 hours; unit assumed. The protocol:
as §1, §2, §3

Experiment [19] deals with Staphylococcus aureus ATCC 6538P. Particulars: code AA: Staphylococcus aureus ATCC 6538P; BHI agar, 35-37° C., 20 to 24 hours; unit assumed. Here is the method:
as §1, §2, §3

Experiment [20] has as its system Nocardia Asteroides ATCC 99700. Particulars: code VV: Nocardia Asteroides ATCC 99700; BHI agar, 35-37° C., 20 to 24 hours; unit assumed. Here is the method:
as §1, §2, §3

The test system of experiment [21] is Staphylococcus aureus NCTC 10649M. To be noted: code EE: Staphylococcus aureus NCTC 10649M; BHI agar, 35-37° C., 20 to 24 hours; unit assumed. Here is the method: as §1, §2, §3
In experiment [22] the test system is Streptococcus Pneumonia 5979. To be noted: code ZZ: Streptococcus Pneumonia 5979; BHI agar, 35-37° C., 20 to 24 hours; unit assumed. Here is the method: as §1
An additional plate containing a compound having known susceptibility patterns for the organisms being tested and belonging to the same antibiotic class as the test compound was also prepared and incubated as a further control, as well as to provide test-to-test comparability.
as §3

Consider `CCC1OC(=O)C(C)C(=O)C(C)C(OC2OC(C)CC(N(C)C)C2O)C(C)(OCC=Cc2cnc3ccccc3c2)CC(C)CN(C)C(C)C(O)C1(C)O` (stereo not drawn) [Example 5, Compound of formula (II): R^1 is —CH2CH═CH-(3-quinolinyl), R^2 and R^3 together are oxo, R^4 is hydrogen, R^5 is hydrogen, R^6 is methyl, R^8 is hydrogen], for which the Antibacterial Activity (MIC) is 6.2 µg/mL in experiment [1]; above 100 µg/mL in experiment [2]; 0.05 µg/mL in experiment [3]; 0.05 µg/mL in experiment [4]; 6.2 µg/mL in experiment [5]; 4 µg/mL in [6]. In addition, the Antibacterial Activity (MIC) in experiment [7] was 12.5 µg/mL; in [8], 0.39 µg/mL; in [9], 0.78 µg/mL; in experiment [10] it was above 100 µg/mL; in [11], 0.03 µg/mL; in [12], 50 µg/mL. Besides, the Antibacterial Activity (MIC) in [13] was above 100 µg/mL; in experiment [14], 0.02 µg/mL; in experiment [15] it was above 100 µg/mL; in experiment [16] it was 0.06 µg/mL; in [17], 0.2 µg/mL; in [18] it was 8 µg/mL. The Antibacterial Activity (MIC) is 0.2 µg/mL in [19], 0.1 µg/mL in experiment [20], 0.39 µg/mL in [21] and above 128 µg/mL in [22].

On to `CCC1OC(=O)C(C)C(=O)C(C)C(OC2OC(C)CC(N(C)C)C2O)C(C)(OCC=Cc2cnc3ccccc3c2)CC(C)CN(C)C(C)C2OC(=O)OC12C` (stereo not drawn) [Example 6, Compound of formula (II): R^1 is —CH2CH═CH-(3-quinolinyl), R^2 and R^3 together are oxo, R^4 and R^5 together are —C(O)—, R^6 is methyl, R^8 is hydrogen], for which the Antibacterial Activity (MIC) in [1] is 6.2 µg/mL; in experiment [2] it was above 100 µg/mL; in experiment [3], 0.05 µg/mL; in experiment [4] it was 0.05 µg/mL; in experiment [5] it was 6.2 µg/mL; in [6], 4 µg/mL. Further, the Antibacterial Activity (MIC) was 12.5 µg/mL in [7]; 0.39 µg/mL in experiment [8]; 0.78 µg/mL in [9]; above 100 µg/mL in experiment [10]; 0.03 µg/mL in [11]; 50 µg/mL in [12]. In addition, the Antibacterial Activity (MIC) in [13] was above 100 µg/mL; in experiment [14], 0.02 µg/mL; in experiment [15] it was above 100 µg/mL; in experiment [16], 0.06 µg/mL; in experiment [17], 0.2 µg/mL; in experiment [18], 8 µg/mL. Besides, the Antibacterial Activity (MIC) in experiment [19] is 0.2 µg/mL; in [20], 0.1 µg/mL; in [21], 0.39 µg/mL; in experiment [22], above 128 µg/mL.

For `CCC1OC(=O)C(C)C(OC2CC(C)(OC)C(O)C(C)O2)C(C)C(OC2OC(C)CC(N(C)C)C2O)C(C)(OCC=Cc2cnc3ccccc3c2)CC(C)CN(C)C(C)C(O)C1(C)O` (stereo not drawn) [Example 7, Compound of formula (I): R^1 is —CH2CH═CH-(3-quinolinyl), R^4 is hydrogen, R^5 is hydrogen, R^6 is methyl, R^7 is hydrogen, R^8 is hydrogen], the Antibacterial Activity (MIC) in experiment [1] is 6.2 µg/mL; in experiment [2] it was above 100 µg/mL; in experiment [3], 0.05 µg/mL; in experiment [4] it was 0.1 µg/mL; in [5], 6.2 µg/mL; in experiment [6], 8 µg/mL. The Antibacterial Activity (MIC) in [7] is 3.1 µg/mL; in experiment [8], 0.2 µg/mL; in experiment [9], 0.39 µg/mL; in experiment [10], above 100 µg/mL; in experiment [11], 0.12 µg/mL; in [12], 100 µg/mL. Moreover, the Antibacterial Activity (MIC) in experiment [13] is above 100 µg/mL; in experiment [14], 0.1 µg/mL; in [15] it was above 100 µg/mL; in experiment [16], 0.12 µg/mL; in experiment [17], 0.2 µg/mL; in [18], 16 µg/mL. In addition, the Antibacterial Activity (MIC) was 0.1 µg/mL in [19], 0.05 µg/mL in experiment [20], 0.39 µg/mL in experiment [21] and above 128 µg/mL in [22].

The values above are taken from patent publication US6764996B1, “9a-azalides with antibacterial activity” (Abbott Laboratories, priority 1999, dated 2004).
